From patent publication US12662473B2, “Inhibitors for programmed cell necrosis and preparation method therefor and use thereof” (SHANGHAI INSTITUTE OF ORGANIC CHEMISTRY, CHINESE ACADEMY OF …, priority 2019, dated 2026)
Where two headings read alike, the source gives them in different places.

Experiments:
FADD−/− Jurkat cells = experiment: TNF-induced programmed cell necrosis inhibition, Cell Titer-Glo viability; assay type: cell-based; details: Homo sapiens, Jurkat
Outline: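 FADD-deficient Jurkat cells (2.5×10^5/mL) were pretreated 1 h at 37 °C with compound plus Smac (50 nM as added), then stimulated with TNFα (50 ng/mL as added) for 14 h at 37 °C, 5% CO2. Viability was measured as ATP by CellTiter-Glo luminescence, with unstimulated DMSO wells as 100%. EC50 values were derived.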

L929 cells = experiment: as above; assay type: cell-based, mouse; details: Mus musculus, read-out: EC50 inhibitory activity on programmed cell necrosis
Outline: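 EC50 values come from CellTiter-Glo luminescence (cellular ATP), normalised to unstimulated DMSO wells as 100% viability. Mouse L929 fibroblasts had 1 h compound-plus-Smac pretreatment at 37 °C (Smac added as 500 nM solution), followed by 14 h TNFα challenge (added as 500 ng/mL solution).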

`Cc1noc([C@@H]2CCCN2C(=O)C(C)(C)Oc2ccc(Cl)cc2)n1` [QY-1-98] was tested, and the EC50 (FADD−/− Jurkat cells; 14 h, TNFa + SM164, read-out: EC50 inhibitory activity on programmed cell necrosis) was 1530 nM, the EC50 (FADD−/− Jurkat cells; TNFa, read-out: EC50 inhibitory activity on programmed cell necrosis) was 128 nM and the EC50 (L929 cells; L929, 14 h, L929 cells (mouse), TNFa + SM164) was 1290 nM. It also gave an EC50 (L929 cells; L929, L929 cells (mouse), TNFa) of 213 nM.
